Laboratory results: patent US20210393734A1, “THERAPEUTIC AGENT FOR ARTHRITIS” (OSAKA UNIVERSITY, priority 2018, published 2021)
“Also recorded” adds a separate entry of the source.

Experiments:
[1] = test system: R3 cells (osteoclast precursor cells existing in an inflammatory synovial membrane); test: Suppression of differentiation of R3 cells into osteoclasts (in vitro); type: cell-based, mouse; details: 10 ng/ml M-CSF, 100 ng/ml RANKL, 0.5, 1, or 2 μM thiostrepton, 96-well plate, FIG. 2
Description: FIG. 2 is figures showing the effect of thiostrepton on the osteoclast differentiation of R3s (in vitro). Photographs indicate that osteoclast differentiation is suppressed by thiostrepton administration (reds show osteoclasts, and greens show precursor cells).
A) CD45-positive cells of blood and a synovial membrane of a collagen-induced arthritis model mouse (CIA model) were selected by flow cytometry, and the cell fractions were identified with the fluorescence of CX3CR1-EGFP and Ly6C-APC. A CX3CR1lowLy6Chi fraction in blood was defined as R1, a CX3CR1lowLy6Chi fraction in an inflammatory synovial membrane was defined as R2, and a CX3CR1hiLy6Cint fraction was defined as R3 (FIG. 1A).

[2] = test system: Collagen-induced arthritis (CIA) mice; test: Effect in collagen-induced arthritis (CIA) model mouse (in vivo); design: species or system DBA-1/J mice; details: 20 mg/kg or 50 mg/kg intraperitoneally every other day from the twenty-first day, compared with the control group
Protocol: Collagen-induced arthritis (CIA) mice were divided into three groups, and 20 mg/kg or 50 mg/kg of thiostrepton or a base (contrast) was intraperitoneally administered every other day from the twenty-first day. Methods for producing and evaluating CIA mice are as follows.
Arthritis was caused using 8- to 10-week-old DBA-1/J mice. Chicken type II collagen was dissolved in a 0.05 M acetic acid solution and rotated at 4° C. all night to make a solution at a concentration of 4.0 mg/ml, and the solution was mixed with the same volume of Freund's complete adjuvant. On the first day, 100 μl of the emulsion was injected into the tail of each of the above-mentioned DBA-1/J mice for immunization, and the administration was repeated in the same way on the twenty-first day. The severity of arthritis was evaluated in accordance with a semi-quantitative score method which consists of an established 5-point scale. The scale is as follows: 0: no swelling, 1: slight swelling only in the heel or the tarsal bones, 2: slight swelling from the heel to the tarsal bones, 3: considerable swelling from the heel to the metatarsal articulation, and 4: severe swelling spreading over an area including the heel, the foot, and the toes. […]
Image analysis using micro-CT was performed. The osteoclastic score was determined with reference to previous study (refer to O'Brien, Arthritis Rheumatol. 2016).

[3] = test system: CX3CR1-positive HLA-DRhi cells from synovial fluid and articulation tissue of a rheumatoid arthritis patient; test: Osteoclast differentiation of CX3CR1-positive HLA-DRhi cells of a rheumatoid arthritis patient; type: cell-based; details: human RA patient cells, 50 ng/ml M-CSF, 100 ng/ml RANKL, 0.5 μM thiostrepton, 96-well plate; FIG. 5B
Protocol: The photographs indicate that the osteoclast differentiation is inhibited by thiostrepton administration.
When these cells were collected by flow cytometry and cultured on a 96-well plate with 50 ng/ml M-CSF, 100 ng/ml RANKL, and 0.5 μM thiostrepton added.

C=C(NC(=O)C(=C)NC(=O)c1csc(C2=N[C@@H]3c4csc(n4)[C@H]4NC(=O)c5csc(n5)[C@H]([C@](C)(O)[C@@H](C)O)NC(=O)[C@H]5CSC(=N5)/C(=C/C)NC(=O)[C@H]([C@@H](C)O)NC(=O)c5csc(n5)[C@]3(CC2)NC(=O)[C@H](C)NC(=O)C(=C)NC(=O)[C@H](C)NC(=O)[C@H]([C@@H](C)CC)N[C@@H]2C=Cc3c([C@H](C)O)cc(nc3[C@H]2O)C(=O)O[C@@H]4C)n1)C(N)=O [thiostrepton]
capability to differentiate into osteoclasts (number of nuclei contained in osteoclasts in one visual field) [1]: remarkably suppressed
arthritis score ([2]; FIG. 3A): decreased significantly
osteoclastic score imaged by micro-CT (erosion score) ([2]; FIG. 3B): decreased significantly
differentiation into osteoclasts (number of nuclei contained in osteoclasts in one visual field) [3]: inhibited; also recorded: significantly suppressed
